Results published in publication PMC12040169 (PLOS Biology, 2025).

Assay: in vitro
Settings: human, hela cells, % viability

Row | SMILES | viability at 28.5 h, 10 µM [%]
1 | S=c1[nH]nc(COc2ccccc2)n1C1CCCCC1 [CBK014411] | 96.2
2 | COCCN(C(=O)CCC(=O)NCCc1ccccc1)C1CCN(C)CC1 [CBK014576] | 96.9
3 | Cn1c(S)nnc1-c1ccccc1O [CBK014577] | 111
4 | CC(C)(N)C(=O)N1CC(C(=O)NCCN(Cc2ccccc2)S(C)(=O)=O)C(c2ccccc2)C1 (centres unmarked) [CBK014706T] | 93.3
5 | c1ccc2c(COc3nccnc3N3CCNCC3)ccnc2c1 [CBK014866] | 90.3
6 | Oc1ccc(-c2n[nH]c(=S)n2-c2ccccc2)cc1 [CBK014887] | 113
7 | c1cncc(CCOc2nccnc2N2CCNCC2)c1 [CBK014992] | 101
8 | CC(=O)Nc1ccc(/N=C/c2ccc(Cl)cc2)cc1 [CBK015166] | 92.3
9 | COc1ccc(CCNC(=S)NC2CC3CCC2C3)cc1OC (centres unmarked) [CBK015410] | 90.8
10 | COc1cccc(CNC(C(=O)O)c2ccc3c(c2)OCO3)c1 (centres unmarked) [CBK015420D] | 89.1
11 | O=C(Nc1ccccn1)Nc1ccccn1 [CBK015518] | 95.5
12 | CCCc1cc(C(N)=O)cc(CCC)c1OCC [CBK015537] | 98
13 | CC(CN(C)C)C(=O)c1cn(C)c2ccccc12 (centres unmarked) [CBK015540] | 102
14 | Cc1c(C(=O)O)[nH]c2c1C(=O)CCC2 [CBK015548] | 97.5
15 | COc1ccc(C(=O)N(C)C)cc1OC [CBK015550] | 115
16 | O=C(Nc1ccccc1)OC1CCCCC1 [CBK015569] | 116
17 | Cc1cc2ccccc2c(=O)n1CCO [CBK015621] | 102
18 | O=c1nc(O)c(I)cn1C1OC(CO)C(O)C1O (centres unmarked) [CBK015625] | 82.3
19 | CN1CCCC1c1cccnc1 (centres unmarked) [CBK015659] | 94
20 | COc1ccc(O[C@@H]2CCCC[C@@H]2N2CCCCC2)cc1 [CBK015661C] | 90.6
21 | CC(C)NC(=O)c1ccc(Cl)cc1 [CBK015665] | 101

Row | SMILES | viability at 28.5 h, 10 µM [%]
22 | O=[N+]([O-])c1ccccc1S(=O)(=O)Nc1cc(C(F)(F)F)ccc1Cl [CBK015721] | 93.3
23 | COc1ccc2c(c1)CCC(c1ccccc1)=C2c1ccc(OCC(O)CN)cc1 (centres unmarked) [CBK015723C] | 70.5
24 | N#Cc1ccc(N)c2ccccc12 [CBK015754] | 90.6
25 | O=C1NCCc2c1[nH]c1ccc(Cl)cc21 [CBK015755] | 38.9
26 | CC(C)(C)O/N=C/c1cccnc1 [CBK015761C] | 109
27 | O=C1NCCc2c1[nH]c1c(Cl)cccc21 [CBK015762] | 78.2
28 | Cc1ccccc1Oc1ccccc1NC(=O)CN1CCCCC1 [CBK015781C] | 98.3
29 | CN(C)/N=C\c1cccc(O)c1 [CBK015814] | 95.2
30 | CC1CCCC(C)N1CC(=O)Nc1ccccc1Oc1ccccc1 (centres unmarked) [CBK015824C] | 119
31 | CCOC(=O)c1c(-c2ccccc2)csc1NS(=O)(=O)c1ccc(C)cc1 [CBK015841] | 95.1
32 | Cc1cnoc1-c1cc(Cl)cc(Cl)c1O [CBK015870] | 89.3
33 | Cc1cc(OCCC#N)cc(C)c1Cl [CBK015872] | 98.2
34 | CCN(CC)CCC(=O)c1ccc(Cl)cc1 [CBK015906C] | 101
35 | CO[C@]1(c2cccc(C)c2)CC[C@@H](N2CCCCC2)CC1 [CBK015909G] | 83
36 | CNCCCC1(c2ccccc2)SC(C)(C)c2ccccc21 (centres unmarked) [CBK015933C] | 90.6
37 | O=C(NCCc1ccccn1)c1ccc(Cl)cc1Cl [CBK015946] | 81.4
38 | Fc1ccc(C2CCc3n[nH]cc3C2)cc1 (centres unmarked) [CBK015957C] | 92
39 | C/C(=N/NC(=O)C(C)CN1CCOCC1)c1ccc(Cl)cc1 (centres unmarked) [CBK016045] | 81.4
40 | COc1ccc2c(c1)CC1(CCC(NCCCC(=O)c3ccc(F)cc3)CC1)C2 (centres unmarked) [CBK016054C] | 87.1
41 | CN(C)CCCn1nc2n(c1=O)-c1ccccc1SC(c1ccccc1)C2 (centres unmarked) [CBK016063] | 105
